According to US20230293517A1, “ANTAGONIST COMPOUNDS” (AdoRx Therapeutics Limited, priority 2020, published 2023):
pIC50, pKi: −log10 of the molar value. Like-named read-outs stand apart in the source and are kept apart here.

Experiments:
[1] = test system: CD8+T cells in human whole blood; assay: Measurement of pCREB in CD8+T cells in human whole blood; format: cell-based; conditions: 3 μM NECA, rolipram
Description: Biological Example—Measurement of pCREB in CD8+T Cells in Human Whole Blood
Heparinised human whole blood was pre-incubated at 37° C. with serial dilutions of A2a antagonists for 20 min. and the phosphodiesterase inhibitor rolipram to amplify the pCREB response. The adenosine receptor agonist NECA is then added at a final concentration of 3 μM and following a 60 min incubation the blood is fixed and red blood cells lysed. White blood cells are isolated, permeabilized and stained with directly conjugated fluorescent antibodies to phospho-CREB (Alexa Fluor 488) and CD8 (Alexa Fluor 647) and the level of phospho-CREB in CD8+T cells is measured by FACS using a BD Accuri C6 Flow Cytometer.

[2] = molecular target: human Adenosine A2a receptor (Homo sapiens (Human), UniProt P29274); assay: Adenosine receptor TR-FRET binding assay (A2a); conditions: inhibition of binding of 100 nM CA200645, CHO cell membranes
In short: (§1)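 Compounds were serially diluted 1:3 in DMSO, then incubated with CHO membranes bearing Tb-tagged human receptor plus CA200645 (A2b 30 nM; A1, A2a, A3 100 nM) for 2 h at room temperature. Time-resolved FRET was read, non-specific binding subtracted using 10 μM XAC, and Ki calculated.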

human PBMCs = assay: CD3/CD28 stimulated IL-2 release NECA reversal assay in human PBMCs; format: cell-based; conditions: PBMC, 1 uM NECA, 24 hours, IL-2 in culture supernatant
Description: Biological Example—CD3/CD28 Stimulated IL-2 Release NECA Reversal Assay in Human PBMCs
Blood is drawn from healthy volunteers using sodium citrate as the anticoagulant (0.3% final concentration). After centrifugation of the blood over Histopaque-1077, PBMCs are collected from the Histopaque/plasma interface and washed twice in PBS (300 g for 10 mins at room temp). Cells are plated at 50,000 cells/well in 150 μl RPMI/10% FCS in 96-well cell culture plates that have been precoated with 1 ug/ml CD3 antibody. 50 μl diluted compound mix is added to the cells, to obtain final concentrations of 1 ug/ml CD28 antibody, 1 uM NECA and 0.003-10 μM adenosine receptor antagonist. Assay plates are incubated for 24 hours at 37° C. in a humidified incubator. Culture supernatant is tested for IL-2 levels using the human IL-2 Tissue Culture Kit (Meso Scale Discovery). Data for dose-response curves is calculated as % inhibition with 100% inhibition defined from no agonist control wells (+CD3/28-NECA)

[3] = molecular target: human Adenosine A2b receptor (Homo sapiens (Human), UniProt P29275); assay: Adenosine receptor TR-FRET binding assay (A2b)
In short: as §1

[4] = molecular target: human Adenosine A1 receptor (Homo sapiens (Human), UniProt P30542); assay: Adenosine receptor TR-FRET binding assay (A1); conditions: inhibition of binding of 100 nM CA200645, CHO cell membranes
In short: as §1

[5] = molecular target: human Adenosine A3 receptor (Homo sapiens (Human), UniProt P0DMS8); assay: Adenosine receptor TR-FRET binding assay (A3); conditions: inhibition of binding of 100 nM CA200645, CHO cell membranes
In short: as §1

[6] = TR-FRET, inhibition of binding of 30 nM CA200645, CHO cell membranes

Chain of human Adenosine A3 receptor (P0DMS8 whole entry): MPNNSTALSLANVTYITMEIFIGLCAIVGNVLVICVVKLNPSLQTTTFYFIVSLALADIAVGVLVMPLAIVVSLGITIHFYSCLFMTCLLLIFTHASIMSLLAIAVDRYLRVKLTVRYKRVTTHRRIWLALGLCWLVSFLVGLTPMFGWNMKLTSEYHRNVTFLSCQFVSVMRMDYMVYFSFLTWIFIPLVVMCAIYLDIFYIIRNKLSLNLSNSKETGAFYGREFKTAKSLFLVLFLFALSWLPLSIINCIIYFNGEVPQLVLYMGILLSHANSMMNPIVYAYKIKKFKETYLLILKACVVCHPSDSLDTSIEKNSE
Chain of human Adenosine A2a receptor (P29274 whole entry): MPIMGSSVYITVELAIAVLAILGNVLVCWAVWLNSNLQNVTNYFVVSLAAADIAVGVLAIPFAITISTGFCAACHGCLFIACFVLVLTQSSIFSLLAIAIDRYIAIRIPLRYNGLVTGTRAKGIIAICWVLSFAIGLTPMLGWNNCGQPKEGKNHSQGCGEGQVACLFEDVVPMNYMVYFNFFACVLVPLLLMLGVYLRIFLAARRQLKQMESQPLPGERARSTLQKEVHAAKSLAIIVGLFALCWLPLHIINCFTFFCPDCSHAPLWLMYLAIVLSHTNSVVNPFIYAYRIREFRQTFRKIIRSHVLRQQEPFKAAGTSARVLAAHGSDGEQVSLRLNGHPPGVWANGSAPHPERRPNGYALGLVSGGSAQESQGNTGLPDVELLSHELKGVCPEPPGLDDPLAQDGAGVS
Chain of human Adenosine A2b receptor (P29275 whole entry): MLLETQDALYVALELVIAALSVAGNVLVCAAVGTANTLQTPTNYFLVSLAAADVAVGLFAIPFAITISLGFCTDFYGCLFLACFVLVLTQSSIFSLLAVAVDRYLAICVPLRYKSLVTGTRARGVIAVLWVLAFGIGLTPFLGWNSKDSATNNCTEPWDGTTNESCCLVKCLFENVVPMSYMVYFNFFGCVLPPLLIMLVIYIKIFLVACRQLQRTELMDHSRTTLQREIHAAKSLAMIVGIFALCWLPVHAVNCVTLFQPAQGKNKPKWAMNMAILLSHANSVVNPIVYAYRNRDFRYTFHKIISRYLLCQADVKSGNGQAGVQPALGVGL
Chain of human Adenosine A1 receptor (P30542 whole entry): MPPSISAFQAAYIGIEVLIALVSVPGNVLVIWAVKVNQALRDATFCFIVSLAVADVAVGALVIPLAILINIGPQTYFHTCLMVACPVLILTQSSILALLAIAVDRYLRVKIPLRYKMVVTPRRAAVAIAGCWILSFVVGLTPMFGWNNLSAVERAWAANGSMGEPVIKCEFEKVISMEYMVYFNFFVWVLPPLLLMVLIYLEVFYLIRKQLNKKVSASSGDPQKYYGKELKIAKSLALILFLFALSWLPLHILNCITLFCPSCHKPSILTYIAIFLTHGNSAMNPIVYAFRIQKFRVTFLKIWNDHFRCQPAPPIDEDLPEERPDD

Structure (SMILES)	pIC50 [1]	pKi [2]	pIC50 (human PBMCs)	pKi [3, 6]	pKi [4]	pKi [5]	pKi [3]
Cc1cc(-c2sc(NC(=O)N3CCNCC3)nc2-c2cccc(C#N)c2)cc(Cl)n1 [Example 3.1]	5.75	8.51	7.89	8.18	7.03	6.57	–
Cc1cc(-c2sc(NC(=O)N3CC4(CNC(=O)N4)C3)nc2-c2cccc(C#N)c2)cc(C)n1 [Example 6.57, N-[4-(3-Cyanophenyl)-5-(2,6-dimethyl-4-pyridyl)thiazol-2-yl]-6-oxo-2,5,7-triazaspiro[3.4]octane-2-carboxamide]	7.22	–	8.59	–	–	–	–
Cc1cc(-c2sc(NC(=O)N3CCC(C)(O)CC3)nc2-c2cccc(C#N)c2)cc(C)n1 [Example 6.96, N-[4-(3-Cyanophenyl)-5-(2,6-dimethyl-4-pyridyl)thiazol-2-yl]-4-hydroxy-4-methyl-piperidine-1-carboxamide]	7.52	9.28	–	8.74	8.00	6.30	–
Cc1cc(-c2sc(NC(=O)N3CC4(COC4)C3)nc2-c2cccc(C#N)c2)cc([C@@H](C)O)n1 (single isomer, unassigned) [Example 12.3b, N-[4-(3-Cyanophenyl)-5-[2-[(1R)-1-hydroxyethyl]-6-methyl-4-pyridyl]thiazol-2-yl]-2-oxa-6-azaspiro[3.3]heptane-6-carboxamide or N-[4-(3-cyanophenyl)-5-[2-[(1S)-1-hydroxyethyl]-6-methyl-4-pyridyl]thiazol-2-yl]-2-oxa-6-azaspiro[3.3]heptane-6-carboxamide]	8.00	9.38	–	8.92	7.72	–	–
Cc1cc(-c2sc(NC(=O)N3CCC(C)(C#N)CC3)nc2-c2cccc(C#N)c2)c(F)c(C)n1 [Example 6.66, 4-Cyano-N-[4-(3-cyanophenyl)-5-(3-fluoro-2,6-dimethyl-4-pyridyl)thiazol-2-yl]-4-methyl-piperidine-1-carboxamide]	6.52	–	8.37	–	–	–	–
Cc1cc(-c2sc(NC(=O)N3CC[C@H](S(C)(=O)=O)C3)nc2-c2cccc(C#N)c2)cc(C)n1 [Example 6.1, (3S)-N-[4-(3-Cyanophenyl)-5-(2,6-dimethyl-4-pyridyl)thiazol-2-yl]-3-methylsulfonyl-pyrrolidine-1-carboxamide]	6.82	8.98	8.44	8.68	–	6.64	–
Cc1cc(-c2sc(NC(=O)N3CCN4C(=O)OCC4C3)nc2-c2cccc(C#N)c2)cc(C)n1 (stereo not shown) [Example 6.13, N-[4-(3-Cyanophenyl)-5-(2,6-dimethyl-4-pyridyl)thiazol-2-yl]-3-oxo-5,6,8,8a-tetrahydro-1H-oxazolo[3,4-a]pyrazine-7-carboxamide]	6.85	9.40	8.43	8.47	7.64	–	–
Cc1cc(-c2sc(NC(=O)N3CCOC(C(C)(C)O)C3)nc2-c2cccc(C#N)c2)cc(C)n1 (stereo not shown) [Example 6.47, N-[4-(3-Cyanophenyl)-5-(2,6-dimethyl-4-pyridyl)thiazol-2-yl]-2-(1-hydroxy-1-methyl-ethyl)morpholine-4-carboxamide]	7.10	9.43	8.72	–	7.42	–	8.60
Cc1cc(-c2sc(NC(=O)N3CC4(CCOCC4)C3)nc2-c2cccc(C#N)c2)cc(C)n1 [Example 6.54, N-[4-(3-Cyanophenyl)-5-(2,6-dimethyl-4-pyridyl)thiazol-2-yl]-7-oxa-2-azaspiro[3.5]nonane-2-carboxamide]	6.85	–	8.48	–	–	–	–
Cc1cc(-c2sc(NC(=O)N3CC[C@H]3CO)nc2-c2cccc(C#N)c2)cc(C)n1 [Example 6.73, (2S)-N-[4-(3-Cyanophenyl)-5-(2,6-dimethyl-4-pyridyl)thiazol-2-yl]-2-(hydroxymethyl)azetidine-1-carboxamide]	6.70	–	7.87	–	–	–	–
CC(=O)Nc1cc(-c2sc(NC(=O)N3CC4(COC4)C3)nc2-c2cccc(C#N)c2)cc(C)n1 [Example 19, N-[5-(2-Acetamido-6-methyl-4-pyridyl)-4-(3-cyanophenyl)thiazol-2-yl]-2-oxa-6-azaspiro[3.3]heptane-6-carboxamide]	6.54	8.73	–	8.10	6.86	–	–
Cc1cc(-c2sc(NC(=O)N3CCC4(CC3)CNC(=O)N4C)nc2-c2cccc(C#N)c2)cc(C)n1 [Example 6.51, N-[4-(3-Cyanophenyl)-5-(2,6-dimethyl-4-pyridyl)thiazol-2-yl]-1-methyl-2-oxo-1,3,8-triazaspiro[4.5]decane-8-carboxamide]	6.49	–	8.21	–	–	–	–
Cc1cc(-c2sc(NC(=O)N3CC[C@@H](S(C)(=O)=O)C3)nc2-c2cccc(C#N)c2)cc(C)n1 [Example 6.9, (3R)-N-[4-(3-Cyanophenyl)-5-(2,6-dimethyl-4-pyridyl)thiazol-2-yl]-3-methylsulfonyl-pyrrolidine-1-carboxamide]	6.80	9.06	8.37	–	–	6.39	9.15
Cc1cc(-c2sc(NC(=O)N3CCN[C@@H](C(F)(F)F)C3)nc2-c2cccc(C#N)c2)cc(C)n1 [Example 13.13, (3R)-N-[4-(3-Cyanophenyl)-5-(2,6-dimethyl-4-pyridyl)thiazol-2-yl]-3-(trifluoromethyl)piperazine-1-carboxamide]	6.96	9.32	–	8.10	7.72	6.06	–
Cc1cc(-c2sc(NC(=O)N3CC(C)(O)C3)nc2-c2cccc(C#N)c2)c(F)c(C)n1 [Example 6.67, N-[4-(3-Cyanophenyl)-5-(3-fluoro-2,6-dimethyl-4-pyridyl)thiazol-2-yl]-3-hydroxy-3-methyl-azetidine-1-carboxamide]	6.60	–	7.97	–	–	–	–
Cc1cc(-c2sc(NC(=O)N3CC4(CNC(=O)C4)C3)nc2-c2cccc(C#N)c2)cc(C)n1 [Example 6.55, N-[4-(3-Cyanophenyl)-5-(2,6-dimethyl-4-pyridyl)thiazol-2-yl]-6-oxo-2,7-diazaspiro[3.4]octane-2-carboxamide]	8.00	–	8.66	–	–	–	–
Cc1cc(-c2sc(NC(=O)N3CCC4(CCCC(=O)N4)CC3)nc2-c2cccc(C#N)c2)cc(C)n1 [Example 6.58, N-[4-(3-Cyanophenyl)-5-(2,6-dimethyl-4-pyridyl)thiazol-2-yl]-2-oxo-1,9-diazaspiro[5.5]undecane-9-carboxamide]	6.44	–	8.07	–	–	–	–
Cc1cc(-c2sc(NC(=O)N3CCN4C(=O)COCC4C3)nc2-c2cccc(C#N)c2)cc(C)n1 (stereo not shown) [Example 6.37, N-[4-(3-Cyanophenyl)-5-(2,6-dimethyl-4-pyridyl)thiazol-2-yl]-4-oxo-6,7,9,9a-tetrahydro-1H-pyrazino[2,1-c][1,4]oxazine-8-carboxamide]	–	8.74	–	8.00	7.04	6.45	–
Cc1cc(-c2sc(NC(=O)N3CCS(=O)(=O)CC3)nc2-c2cccc(C#N)c2)cc(C)n1 [Example 4.27, N-[4-(3-Cyanophenyl)-5-(2,6-dimethyl-4-pyridyl)thiazol-2-yl]-1,1-dioxo-1,4-thiazinane-4-carboxamide]	–	10.00	–	9.10	8.22	6.37	–
Cc1cc(-c2sc(NC(=O)N3CCC4(CC3)CN(C)C(=O)N4C)nc2-c2cccc(C#N)c2)cc(C)n1 [Example 6.89, N-[4-(3-Cyanophenyl)-5-(2,6-dimethyl-4-pyridyl)thiazol-2-yl]-1,3-dimethyl-2-oxo-1,3,8-triazaspiro[4.5]decane-8-carboxamide]	–	9.00	–	8.46	6.49	6.52	–
COCC1(C#N)CCN(C(=O)Nc2nc(-c3cccc(C#N)c3)c(-c3cc(C)nc(C)c3)s2)CC1 [Example 4.6, 4-Cyano-N-[4-(3-cyanophenyl)-5-(2,6-dimethyl-4-pyridyl)thiazol-2-yl]-4-(methoxymethyl)piperidine-1-carboxamide]	–	9.74	–	8.92	7.39	6.77	–
